Source: patent publication US20230129359A1, “MUSCARINIC RECEPTOR 4 ANTAGONISTS AND METHODS OF USE” (Neurocrine Biosciences, Inc., priority 2020, published 2023)

The molecules below were run against T1, human M4 receptor (Homo sapiens, UniProt P08173) (assay: Radioligand ([3H]N-methylscopolamine) binding assay, membranes from CHO cells expressing human M4 receptor). Conditions: Ki against human M4 receptor; membranes from CHO cells; tritiated N-methylscopolamine 1.5 nM; read-out: K.
T1 construct: expressed in transfected cells; host or cells: CHO cells
T1 sequence (P08173 1-479): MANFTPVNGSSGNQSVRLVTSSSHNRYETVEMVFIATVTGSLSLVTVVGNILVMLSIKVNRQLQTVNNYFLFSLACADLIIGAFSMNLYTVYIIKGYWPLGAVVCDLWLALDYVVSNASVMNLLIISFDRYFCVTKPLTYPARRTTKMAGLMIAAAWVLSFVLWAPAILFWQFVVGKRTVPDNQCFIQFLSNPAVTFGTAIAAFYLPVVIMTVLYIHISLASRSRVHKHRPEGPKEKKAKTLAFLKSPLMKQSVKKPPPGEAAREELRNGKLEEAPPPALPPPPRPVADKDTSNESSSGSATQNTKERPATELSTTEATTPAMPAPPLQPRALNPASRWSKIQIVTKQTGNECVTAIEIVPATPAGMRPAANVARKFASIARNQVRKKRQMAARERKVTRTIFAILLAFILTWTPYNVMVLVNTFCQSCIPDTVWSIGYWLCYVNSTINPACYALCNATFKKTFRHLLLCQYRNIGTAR
In short: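 Competition binding used CHO-cell membranes expressing human M4 with 1.5 nM [3H]N-methylscopolamine and twelve compound concentrations ([…]). Incubation was 90 minutes at 37 °C in 50 mM HEPES, 100 mM NaCl, 5 mM MgCl2, 1 mM EDTA, pH 7.4. Bound ligand was collected by filtration onto PEI-treated glass fibre for Ki.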

| Ki [nM] | Compound |
| --- | --- |
| 100 to 1000 | C[C@@H]1CN(c2ncc(C(F)(F)F)cn2)C[C@H](C)N1C(=O)OC1(C)CC2(CN(Cc3ccccc3)C2)C1 [Compound 352, 2-benzyl-6-methyl-2-azaspiro[3.3]heptan-6-yl (2R,6S)-2,6-dimethyl-4-[5-(trifluoromethyl)pyrimidin-2-yl]piperazine-1-carboxylate] |
| 100 to 1000 | C[C@@H]1CN(c2cnc(C(F)(F)F)cn2)CCN1C(=O)NC1CC2(C1)CN(Cc1ccccc1)C2 [Compound 22, (2R)-N-{2-benzyl-2-azaspiro[3.3]heptan-6-yl}-2-methyl-4-[5-(trifluoromethyl)pyrazin-2-yl]piperazine-1-carboxamide] |
| < 10 | C[C@@H]1CN(c2nc3cc(F)c(F)cc3s2)C[C@H](C)N1C(=O)OC1CC2(C1)CN(Cc1ccccc1)C2 [Compound 447, 2-benzyl-2-azaspiro[3.3]heptan-6-yl (2R,6S)-4-(5,6-difluoro-1,3-benzothiazol-2-yl)-2,6-dimethylpiperazine-1-carboxylate] |
| < 10 | C[C@@H]1CN(c2cnc3ccccc3n2)[C@@H](C)CN1C(=O)OC1CC2(C1)CN(Cc1ccccc1)C2 [Compound 187, 2-benzyl-2-azaspiro[3.3]heptan-6-yl (2R,5S)-2,5-dimethyl-4-(quinoxalin-2-yl)piperazine-1-carboxylate] |
| 100 to 1000 | C[C@@H]1CN(c2ncc(C#N)cn2)C[C@@H](C)N1C(=O)OC1CC2(C1)CN(Cc1ccccc1)C2 [Compound 159, 2-benzyl-2-azaspiro[3.3]heptan-6-yl (2R,6R)-4-(5-cyanopyrimidin-2-yl)-2,6-dimethylpiperazine-1-carboxylate] |
| 10 to 100 | C[C@@H]1CN(c2nc3ccc(C(F)(F)F)cc3s2)C[C@@H](C)N1C(=O)OC1CC2(C1)CN(Cc1ccc(F)cc1)C2 [Compound 385, 2-[(4-fluorophenyl)methyl]-2-azaspiro[3.3]heptan-6-yl (2R,6R)-2,6-dimethyl-4-[6-(trifluoromethyl)-1,3-benzothiazol-2-yl]piperazine-1-carboxylate] |
| 10 to 100 | C[C@@H]1CN(c2nc3ccc(F)cc3o2)[C@@H](C)CN1C(=O)OC1CC2(C1)CN(Cc1ccccc1)C2 [Compound 446, 2-benzyl-2-azaspiro[3.3]heptan-6-yl (2R,5S)-4-(6-fluoro-1,3-benzoxazol-2-yl)-2,5-dimethylpiperazine-1-carboxylate] |
| < 10 | C[C@@H]1CN(c2nc3cc(C(F)(F)F)cnc3s2)[C@@H](C)CN1C(=O)OC1CC2(C1)CN(Cc1ccccc1)C2 [Compound 367, 2-benzyl-2-azaspiro[3.3]heptan-6-yl (2R,5S)-2,5-dimethyl-4-[6-(trifluoromethyl)-[1,3]thiazolo[4,3-b]pyridin-2-yl]piperazine-1-carboxylate] |
| 10 to 100 | Cc1nc(N2C[C@@H](C)N(C(=O)OC3CC4(C3)CN(Cc3ccccc3)C4)[C@@H](C)C2)ncc1Cl [Compound 279, 2-benzyl-2-azaspiro[3.3]heptan-6-yl (2R,6S)-4-(5-chloro-4-methylpyrimidin-2-yl)-2,6-dimethylpiperazine-1-carboxylate] |
| 10 to 100 | C[C@@H]1CN(c2ncc(F)cn2)C[C@H](C)N1C(=O)OC1CC2(C1)CN(Cc1ccc(F)cc1)C2 [Compound 468, 2-[(4-fluorophenyl)methyl]-2-azaspiro[3.3]heptan-6-yl (2R,6S)-4-(5-fluoropyrimidin-2-yl)-2,6-dimethylpiperazine-1-carboxylate] |
| 100 to 1000 | Cc1nc(C#N)cnc1N1C[C@@H](C)N(C(=O)OC2CC3(C2)CN(Cc2ccccc2)C3)[C@@H](C)C1 [Compound 181, 2-benzyl-2-azaspiro[3.3]heptan-6-yl (2R,6S)-4-(5-cyano-3-methylpyrazin-2-yl)-2,6-dimethylpiperazine-1-carboxylate] |
| < 10 | C[C@@H]1CN(c2nc3ccc(C(F)(F)F)cc3s2)C[C@H](C)N1C(=O)OC1CC2(C1)CN(Cc1ccc(F)cc1)C2 [Compound 384, 2-[(4-fluorophenyl)methyl]-2-azaspiro[3.3]heptan-6-yl (2R,6S)-2,6-dimethyl-4-[6-(trifluoromethyl)-1,3-benzothiazol-2-yl]piperazine-1-carboxylate] |
| 10 to 100 | C[C@@H]1CN(c2ncc(C(F)(F)F)cn2)[C@H](C)CN1C(=O)NC1CC2(C1)CN(Cc1ccccc1)C2 [Compound 38, (2R,5R)-N-{2-benzyl-2-azaspiro[3.3]heptan-6-yl}-2,5-dimethyl-4-[5-(trifluoromethyl)pyrimidin-2-yl]piperazine-1-carboxamide] |
| 10 to 100 | C[C@@H]1CN(c2cnc3ccccc3n2)[C@@H](C)CN1C(=O)OC1CC2(C1)CN(Cc1ccc(F)cc1)C2 [Compound 394, 2-[(4-fluorophenyl)methyl]-2-azaspiro[3.3]heptan-6-yl (2R,5S)-2,5-dimethyl-4-(quinoxalin-2-yl)piperazine-1-carboxylate] |
| 10 to 100 | C#Cc1cnc(N2C[C@@H](C)N(C(=O)OC3CC4(C3)CN(Cc3ccccc3)C4)[C@@H](C)C2)nc1 [Compound 508, 2-benzyl-2-azaspiro[3.3]heptan-6-yl (2R,6S)-4-(5-ethynylpyrimidin-2-yl)-2,6-dimethylpiperazine-1-carboxylate] |
| 10 to 100 | C[C@@H]1CN(c2ncc(C(F)F)cn2)C[C@H](C)N1C(=O)OC1CC2(C1)CN(Cc1ccccc1)C2 [Compound 464, 2-benzyl-2-azaspiro[3.3]heptan-6-yl (2R,6S)-4-[5-(difluoromethyl)pyrimidin-2-yl]-2,6-dimethylpiperazine-1-carboxylate] |
| 10 to 100 | C[C@@H]1CN(c2ncc(C(F)(F)F)cn2)C[C@H](C)N1C(=O)NC1CC2(C1)CN(CC1=CCCCC1)C2 [Compound 313, (2R,6S)-N-[2-(cyclohex-1-en-1-ylmethyl)-2-azaspiro[3.3]heptan-6-yl]-2,6-dimethyl-4-[5-(trifluoromethyl)pyrimidin-2-yl]piperazine-1-carboxamide] |
| 10 to 100 | C[C@@H]1CN(c2cnc(C(F)(F)F)cn2)C[C@@H](C)N1C(=O)OC1CC2(C1)CN(Cc1ccc(F)cc1)C2 [Compound 398, 2-[(4-fluorophenyl)methyl]-2-azaspiro[3.3]heptan-6-yl (2R,6R)-2,6-dimethyl-4-[5-(trifluoromethyl)pyrazin-2-yl]piperazine-1-carboxylate] |
| 10 to 100 | C[C@@H]1CN(c2cnc(C(F)(F)F)cn2)C[C@@H](C)N1C(=O)OC1(C)CC2(CN(Cc3ccccc3)C2)C1 [Compound 356, 2-benzyl-6-methyl-2-azaspiro[3.3]heptan-6-yl (2R,6R)-2,6-dimethyl-4-[5-(trifluoromethyl)pyrazin-2-yl]piperazine-1-carboxylate] |
| 100 to 1000 | O=C(OC1CC2(C1)CN(Cc1ccccc1)C2)N1CCN(c2cc(F)c(F)c(F)c2)CC1 [Compound 105, 2-benzyl-2-azaspiro[3.3]heptan-6-yl 4-(3,4,5-trifluorophenyl)piperazine-1-carboxylate] |
| 10 to 100 | C[C@@H]1CN(c2cnc(C(F)(F)F)cn2)[C@@H](C)CN1C(=O)NC1CC2(C1)CN(Cc1ccccc1)C2 [Compound 35, (2R,5S)-N-{2-benzyl-2-azaspiro[3.3]heptan-6-yl}-2,5-dimethyl-4-[5-(trifluoromethyl)pyrazin-2-yl]piperazine-1-carboxamide] |

| Compound | Ki [nM] |
| --- | --- |
| O=C(OC1CC2(C1)CN(Cc1ccccc1)C2)N1C2CC1CN(c1cnc(C(F)(F)F)cn1)C2 [Compound 110, 2-benzyl-2-azaspiro[3.3]heptan-6-yl 3-[5-(trifluoromethyl)pyrazin-2-yl]-3,6-diazabicyclo[3.1.1]heptane-6-carboxylate] | 100 to 1000 |
